PMC12469831, “The Odorant-Binding Proteins AspiOBP1 and AspiOBP2 in Aleurocanthus spiniferus Are Involved in the Perception of Host Volatiles” (International Journal of Molecular Sciences, 2025)
Structures can show the parent of a compound that is named as a salt.

Molecular target: T1, AspiOBP2
T1 construct: signal peptide removed; pET-30a(+) BamHI/EcoRI, E. coli BL21; His-tag kept; about 27 kDa predicted; clone primers encode mature start ETSTVDS and C-terminus PPPKP
Assay: fluorescent probe titration, Scatchard
Format: binding, Aleurocanthus spiniferus
Conditions: 50 mmol/L Tris-HCl pH 7.4, 2 µmol/L protein, excitation 295 nm, His-tag kept

- Kd: 2260 ± 470 nM
SMILES: O=S(=O)(O)c1cccc2c(-c3ccc(Nc4ccccc4)c4c(S(=O)(=O)O)cccc34)ccc(Nc3ccccc3)c12 [bis-ANS, 4,4′-Dianilino-1,1′-binaphthyl-5,5′-disulfonic acid, dipotassium salt]
